Measurements reported in article PMC9250534, “Synthesis and direct assay of large macrocycle diversities by combinatorial late-stage modification at picomole scale” (Nature Communications, 2022).
Numbered stars: 1 amine (or outer) side, 2 acyl side, 3 side chain; on linkers, the order of the positions; unused ones are H or OH. Bridge positions count the residues as written; N and C are the ends. Square brackets hold non-standard residues; d marks the D form. Peptide text beside a SMILES is read from it. * marks the point of attachment. Pyrazinoyl(5-oxo-4H) = O=C(c1c[nH]c(=O)cn1)*; 1,2,3Thiadiazole5CO(4-Me) = Cc1nnsc1C(=O)*; Nicotinoyl(6-OMe) = COc1ccc(C(=O)*)cn1; 2Thenoyl(5-Cl) = O=C(c1ccc(Cl)s1)*; Phenoxyacetyl = O=C(COc1ccccc1)*; Cysteamide = C(CS[*:3])N[*:1]; X3 = O=C(Cc1c[nH]c2ccccc12)*; 2Furoyl = O=C(c1ccco1)*; Mpa = O=C(O)CCS

target: MDM2 (Homo sapiens, UniProt Q00987); test: MDM2 binding screen of Libraries 3 and 4: displacement of fluorescent probe F-M8 at 750 nM macrocycle; conditions: Panel b, Library 3: 63 scaffolds combinatorially acylated with 15 carboxylic acids at 30 picomole scale; displacement of fluorescent peptide probe; macrocycle 750 nM
Sequence (Q00987 whole entry): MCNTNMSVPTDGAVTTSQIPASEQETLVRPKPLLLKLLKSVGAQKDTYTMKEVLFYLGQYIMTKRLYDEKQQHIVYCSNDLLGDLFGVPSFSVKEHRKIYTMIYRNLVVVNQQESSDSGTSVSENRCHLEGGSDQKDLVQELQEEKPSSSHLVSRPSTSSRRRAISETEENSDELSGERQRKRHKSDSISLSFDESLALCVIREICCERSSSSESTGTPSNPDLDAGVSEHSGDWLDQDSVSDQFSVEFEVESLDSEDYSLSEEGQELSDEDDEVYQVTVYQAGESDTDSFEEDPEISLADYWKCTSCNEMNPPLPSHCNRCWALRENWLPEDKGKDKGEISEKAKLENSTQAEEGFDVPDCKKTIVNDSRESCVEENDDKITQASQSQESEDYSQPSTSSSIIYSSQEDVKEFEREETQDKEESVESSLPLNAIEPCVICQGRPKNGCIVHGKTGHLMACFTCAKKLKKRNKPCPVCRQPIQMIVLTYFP
Protocol: The cyclic peptide scaffolds required for Libraries 3 and 4 were synthesized as described for those used in Library 2. Due to the presence of many N-methylated amino acids which are more difficult to couple, 200 mM HOAt was applied together with HATU. The scaffolds were diluted to 2 mM in DMSO, and 15 nL were transferred using acoustic dispensing, followed by 15 nL DMSO containing carboxylic acids (40 mM, 20 equiv.), HBTU (40 mM) and DABCO (40 mM). After 6 h reaction at room temperature, 370 nL of DMSO was added to each well, followed by 5 μL of 100 mM Tris-Cl pH 7.4 containing 0.01% v/v Tween20, for quenching overnight.

First: O=C1CCSSCCNC(=O)C(Cc2cccc3ccccc23)NC(=O)C(CNC(=O)C2CC2c2ccccc2)NC(=O)C2(CC2)CN1 (mixture of isomers) [X-Amcp-D-Dap-1-NaI + Acid 105]
Second: O=C1CCSSCCNC(=O)C(Cc2c[nH]c3ccccc23)NC(=O)C(CNC(=O)C2CC2c2ccccc2)NC(=O)C2(CC2)CN1 (mixture of isomers) [X-Amcp-D-Dap-D-Trp + Acid 105]
The “fraction of fluorescent probe displaced” value of the first is higher: -0.034 for the first, -0.041 for the second.

Going from `CC(Oc1cccc(Cl)c1)C(=O)NCC1NC(=O)C2(CC2)CNC(=O)CCSSCCNC(=O)C(Cc2ccc3ccccc3c2)NC1=O` (mixture of isomers) [X-Amcp-D-Dap-2-Nal + Acid 113] to `CC(Oc1cccc(Cl)c1)C(=O)NCC1NC(=O)C2(CC2)CNC(=O)CCSSCCNC(=O)C(Cc2c[nH]c3ccccc23)NC1=O` (mixture of isomers) [X-Amcp-Dap-D-Trp + Acid 113], the “fraction of fluorescent probe displaced” value falls from -0.00533 to -0.012.

First: CN1C(=O)C(CNC(=O)C2COc3ccccc3O2)NC(=O)C2(CC2)CNC(=O)CCSSCCNC(=O)C1Cc1c[nH]c2ccccc12 (mixture of isomers) [X-Amcp-D-Dap-NMe-Trp + Acid 115]
Second: O=C1CCSSCCNC(=O)C(Cc2c[nH]c3ccccc23)NC(=O)C(CNC(=O)C2COc3ccccc3O2)NC(=O)C2(CC2)CN1 (mixture of isomers) [X-Amcp-Dap-Trp + Acid 115]
The “fraction of fluorescent probe displaced” value of the first is higher: 0.015 for the first, 0.00133 for the second.

Compared with `CC(Oc1cccc(Cl)c1)C(=O)NCC1NC(=O)C2(CC2)CNC(=O)CCSSCCNC(=O)C(Cc2c[nH]c3cc(Cl)ccc23)NC1=O` (mixture of isomers) [X-Amcp-Dap-Cl-Trp + Acid 113], `CC(Oc1cccc(Cl)c1)C(=O)NCC1NC(=O)C2(CC2)CNC(=O)CCSSCCNC(=O)C(Cc2c[nH]c3ccccc23)NC1=O` (mixture of isomers) [X-Amcp-Dap-Trp + Acid 113] is higher in “fraction of fluorescent probe displaced” value: -0.019 for the first, 0.00133 for the second.

First: CC(Oc1cccc(Cl)c1)C(=O)NCC1NC(=O)C2(CC2)CNC(=O)CCSSCCNC(=O)C(Cc2cn(C)c3ccccc23)NC1=O (mixture of isomers) [X-Amcp-Dap-Me-Trp + Acid 113]
Second: CC(Oc1cccc(Cl)c1)C(=O)NCCN1CC(=O)NC(Cc2cn(C)c3ccccc23)C(=O)NCCSSCCC(=O)NCC2(CC2)C1=O (mixture of isomers) [X-Amcp-N-Aeg-Me-Trp + Acid 113]
The “fraction of fluorescent probe displaced” value of the first is lower: 0.008 for the first, 0.015 for the second.

Compared with `O=C1CCSSCCNC(=O)C(Cc2cccc3ccccc23)NC(=O)CN(CCNC(=O)C2COc3ccccc3O2)C(=O)C2(CC2)CN1` (mixture of isomers) [X-Amcp-N-Aeg-1-NaI + Acid 115], `O=C1CCSSCCNC(=O)C(Cc2ccc3ccccc3c2)NC(=O)CN(CCNC(=O)C2COc3ccccc3O2)C(=O)C2(CC2)CN1` (mixture of isomers) [X-Amcp-N-Aeg-2-Nal + Acid 115] is higher in “fraction of fluorescent probe displaced” value: -0.00533 for the first, 0.015 for the second.

Going from `CC(Oc1cccc(Cl)c1)C(=O)NCCN1CC(=O)NC(Cc2c[nH]c3cc(Cl)ccc23)C(=O)NCCSSCCC(=O)NCC2(CC2)C1=O` (mixture of isomers) [X-Amcp-N-Aeg-Cl-Trp + Acid 113] to `CC(Oc1cccc(Cl)c1)C(=O)NCC1NC(=O)C2CCCN(C2)C(=O)CCSSCCNC(=O)C(Cc2c[nH]c3ccccc23)NC1=O` (mixture of isomers) [X-Nip-Dap-Trp + Acid 113], the “fraction of fluorescent probe displaced” value rises from -0.019 to -0.00533.

First: CC(Oc1cccc(Cl)c1)C(=O)NCC1NC(=O)C2CCCN(C2)C(=O)CCSSCCNC(=O)C(Cc2ccc3ccccc3c2)NC1=O (mixture of isomers) [X-Nip-D-Dap-2-Nal + Acid 113]
Second: CC(Oc1cccc(Cl)c1)C(=O)NCC1NC(=O)C2CCCN(C2)C(=O)CCSSCCNC(=O)C(Cc2c[nH]c3ccccc23)N(C)C1=O (mixture of isomers) [X-Nip-D-Dap-NMe-Trp + Acid 113]
The “fraction of fluorescent probe displaced” value of the first is lower: -0.012 for the first, 0.00133 for the second.

Compared with `O=C1NC(CNC(=O)C2COc3ccccc3O2)C(=O)NC(Cc2c[nH]c3ccccc23)C(=O)NCCSSCCC(=O)N2CCCC1C2` (mixture of isomers) [X-Nip-D-Dap-Trp + Acid 115], `CC(Oc1cccc(Cl)c1)C(=O)NCCN1CC(=O)NC(Cc2cccc3ccccc23)C(=O)NCCSSCCC(=O)N2CCCC(C2)C1=O` (mixture of isomers) [X-Nip-N-Aeg-1-NaI + Acid 113] is lower in “fraction of fluorescent probe displaced” value: 0.00133 for the first, -0.00533 for the second.

Compared with `O=C(O)C1CC1c1ccccc1` (centres unmarked) [Acid 105], `O=C(O)CCS(=O)(=O)c1ccccc1` [Acid 114] is higher in “fraction of fluorescent probe displaced” value: -0.00844 for the first, 0.035 for the second.

Going from `O=C(O)/C=C/c1ccncc1` [Acid 106] to `O=C(O)/C=C/c1ccc(Cl)cc1` [Acid 108], the “fraction of fluorescent probe displaced” value rises from 0.00455 to 0.015.

Compared with `O=C(O)c1ccc2ccccc2c1` [Acid 107], `O=C(O)c1cccc(Oc2ccccc2)c1` [Acid 111] is higher in “fraction of fluorescent probe displaced” value: -0.002 for the first, 0.015 for the second.

Going from `O=C(O)/C=C/c1ccc(OCc2ccccc2)cc1` [Acid 110] to `CC(Oc1cccc(Cl)c1)C(=O)O` (centres unmarked) [Acid 113], the “fraction of fluorescent probe displaced” value falls from 0.035 to -0.00533.

target: T1, thrombin (Homo sapiens, UniProt P00734); test: Thrombin inhibition screen of crude macrocycle reactions (residual thrombin activity, fluorogenic substrate Z-Gly-Gly-Arg-AMC); format: biochemical; conditions: 10 µM macrocycle concentration; crude reactions, Library 1a-l; scaffold AA1-AA2-AA3 combined with 1-16 or '-'
T1 construct: consists of two polypeptide chains of 36 (light chain) and 259 amino acid
Summary of the method: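 Residual activity was measured as the AMC release rate after adding 50 μM Z-Gly-Gly-Arg-AMC. This followed a 10-min room-temperature preincubation of 2 nM thrombin with 10 μM single macrocycles in pH 7.4 Tris buffer (0.6% DMSO). Percent inhibition was taken against the mean slope of DMSO controls.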

First: O=C1CCNC(=O)[C@@H](CO)NC(=O)CCSSCCNC(=O)[C@H](CCCCNC(=O)c2c[nH]c(=O)[nH]c2=O)N1 [s-B2-D1/11]
Second: O=C1CCSSCCNC(=O)[C@H](CCCCNC(=O)c2c[nH]c(=O)[nH]c2=O)NC(=O)[C@H]2CCCN(C2)C(=O)[C@@H](CO)N1 [s-B4-D1/11]
The “percent residual thrombin activity” value of the first is higher: 113.521% for the first, 112.975% for the second.

Going from `O=C(COc1ccccc1)NCCCC[C@@H]1NC(=O)CCNC(=O)[C@@H](CO)NC(=O)CCSSCCNC1=O` [s-B2-D1/13] to `O=C(COc1ccccc1)NCCCC[C@@H]1NC(=O)[C@H]2CCCN(C2)C(=O)[C@@H](CO)NC(=O)CCSSCCNC1=O` [s-B4-D1/13], the “percent residual thrombin activity” value falls from 112.63% to 112.216%.

First: O=C1CCNC(=O)[C@@H](CO)NC(=O)CCSSCCNC(=O)[C@H](CCCCNC(=O)c2ccco2)N1 [s-B2-D1/16]
Second: CC(C)[C@@H]1NC(=O)CCSSCCNC(=O)[C@@H]2CCCN2C(=O)[C@H](CCCCNC(=O)c2ccco2)NC1=O [v-D1-B1/16] ([Mpa]VK(2Furoyl)P-Cysteamide; disulfide 1-C)
The “percent residual thrombin activity” value of the first is higher: 112.001% for the first, 102.421% for the second.

Going from `COc1ccc(C(=O)NCCCC[C@@H]2NC(=O)[C@H]3CCCN(C3)C(=O)[C@@H](CO)NC(=O)CCSSCCNC2=O)cn1` [s-B4-D1/10] to `COc1ccc(C(=O)NCCCC[C@@H]2NC(=O)[C@H](C(C)C)NC(=O)CCSSCCNC(=O)[C@@H]3CCCN3C2=O)cn1` [v-D1-B1/10] ([Mpa]VK(Nicotinoyl(6-OMe))P-Cysteamide; disulfide 1-C), the “percent residual thrombin activity” value falls from 109.656% to 104.488%.

Compared with `CC(C)[C@@H]1NC(=O)CCSSCCNC(=O)[C@@H]2CCCN2C(=O)[C@H](CCCCNC(=O)c2c[nH]c(=O)cn2)NC1=O` [v-D1-B1/9] ([Mpa]VK(Pyrazinoyl(5-oxo-4H))P-Cysteamide; disulfide 1-C), `CC(C)[C@@H]1NC(=O)CCSSCCNC(=O)[C@@H]2CCCN2C(=O)[C@H](CCCCNC(=O)c2ccc(Cl)s2)NC1=O` [v-D1-B1/14] ([Mpa]VK(2Thenoyl(5-Cl))P-Cysteamide; disulfide 1-C) is lower in “percent residual thrombin activity” value: 99.656% for the first, 97.5215% for the second.

Compared with `CC(C)[C@@H]1NC(=O)CCSSCCNC(=O)[C@@H]2CCCN2C(=O)[C@H](CCCCNC(=O)Cc2c[nH]c3ccccc23)NC1=O` [v-D1-B1/12] ([Mpa]VK(X3)P-Cysteamide; disulfide 1-C), `CC(C)[C@@H]1NC(=O)CCSSCCNC(=O)[C@@H]2CCCN2C(=O)[C@H](CCCCNC(=O)COc2ccccc2)NC1=O` [v-D1-B1/13] ([Mpa]VK(Phenoxyacetyl)P-Cysteamide; disulfide 1-C) is higher in “percent residual thrombin activity” value: 99.643% for the first, 104.766% for the second.

First: Cc1nnsc1C(=O)NCCCC[C@@H]1NC(=O)[C@H](C(C)C)NC(=O)CCSSCCNC(=O)[C@@H]2CCCN2C1=O [v-D1-B1/15] ([Mpa]VK(1,2,3Thiadiazole5CO(4-Me))P-Cysteamide; disulfide 1-C)
Second: O=C1CCSSCCNC(=O)[C@@H]2CCCN2C(=O)[C@H](CCCCNC(=O)c2ccco2)NC(=O)[C@@H](Cc2ccc(O)cc2)N1 [y-D1-B1/16] ([Mpa][dY]K(2Furoyl)P-Cysteamide; disulfide 1-C)
The “percent residual thrombin activity” value of the first is higher: 105.611% for the first, 104.272% for the second.

In the case of `O=C(Cc1c[nH]c2ccccc12)NCCCC[C@@H]1NC(=O)[C@@H](Cc2ccc(O)cc2)NC(=O)CCSSCCNC(=O)[C@@H]2CCCN2C1=O` [y-D1-B1/12] ([Mpa][dY]K(X3)P-Cysteamide; disulfide 1-C), the “percent residual thrombin activity” value is reported as 104.378%.
